# Laboratory results published in ChEMBL document CHEMBL5233258, “Recent developments of gallic acid derivatives and their hybrids in medicinal chemistry: A review” (Eur J Med Chem, 2020).
# Legend:
# Bacillus subtilis [1] = assay: Antibacterial activity against Bacillus subtilis ATCC 6633 by Mueller-Hinton broth method; format: functional
# Bacillus subtilis [2] = assay: Bactericidal activity against Bacillus subtilis ATCC 6633 by Mueller-Hinton broth method; format: functional
# MCF7 [3] = assay: Anticancer activity against human MCF7 cells assessed as inhibition of cell growth incubated for 24 hrs by MTT assay; format: functional, cell-based; conditions: MCF7, 24 h
# [4] = Antioxidant activity assessed as DPPH radical scavenging activity measured after 30 mins by spectrophotometric analysis; format: functional
# MCF7 [5] = assay: Cytotoxicity against human MCF7 cells assessed as reduction in cell viability incubated for 72 hrs by MTT assay; format: functional, cell-based; conditions: MCF7, 72 h
# HCT-116 [6] = assay: Cytotoxicity against human HCT-116 cells assessed as reduction in cell viability incubated for 72 hrs by MTT assay; format: functional, cell-based; conditions: HCT-116, 72 h
# [7] = Antioxidant activity assessed as DPPH radical scavenging activity measured after 30 mins; format: functional
# [8] = Inhibition of recombinant HIV-1 integrase using 32-P labeled dBY-1 as substrate assessed as disintegration of substrate incubated for 1 hrs; set-up: species or system Human immunodeficiency virus 1
# HeLa = assay: Anticancer activity against human HeLa cells assessed as inhibition of cell growth incubated for 24 hrs by MTT assay; format: functional, cell-based
# HCT-116 [9] = assay: Anticancer activity against human HCT-116 cells assessed as inhibition of cell growth incubated for 24 hrs by MTT assay; format: functional, cell-based; conditions: HCT-116, 24 h
# [10] = Antioxidant activity assessed as DPPH radical scavenging activity; format: functional
# [11] = Antioxidant activity assessed as ABTS radical scavenging activity; format: functional
# Rattus norvegicus = species on record: Rattus norvegicus; assay: Inhibition of tert-butylhydroperoxide induced lipid peroxidation in rat liver microsomes; format: functional, Microsome
# Escherichia coli = assay: Antibacterial activity against Escherichia coli assessed as zone of inhibition incubated for 24 hrs by agar diffusion method; format: functional; also: test concentration or dose not given here
# HCT-116 [12] = assay: Cytotoxicity against human HCT-116 cells by MTT assay; format: functional, cell-based
# HepG2 = assay: Cytotoxicity against human HepG2 cells by MTT assay; format: functional, cell-based
# Pseudomonas aeruginosa = assay: Antibacterial activity against Pseudomonas aeruginosa assessed as zone of inhibition incubated for 24 hrs by agar diffusion method; format: functional; also: test concentration or dose not given here
# [13] = Inhibition of recombinant HIV-1 integrase using V1/V2 as substrate assessed as 3'-end processing of the substrate incubated for 1 hrs; set-up: species or system Human immunodeficiency virus 1
# [14] = Antioxidant activity in ethanol solution by DPPH scavenging assay; format: functional
# Human alphaherpesvirus 2 = assay: Antiviral activity against Herpes simplex viruses type 2 MS infected in Monkey BGM cells; format: functional, organism-based; conditions: Human alphaherpesvirus 2, MS
# Plasmodium falciparum = assay: Antimalarial activity against Plasmodium falciparum; format: functional, organism-based
# [15] = Antioxidant activity in DOPC loaded liposomes by DPPH scavenging assay; format: physicochemical
# [16] = system: Mycobacterium tuberculosis; assay: Antitubercular activity against Mycobacterium tuberculosis H37 Rv ATCC 27294 incubated for 7 days by Alamar blue assay; format: functional; conditions: H37 Rv ATCC 27294, 168 h, time 7 day
# [17] = system: Corynebacterium ammoniagenes; assay: Antibacterial activity against Brevibacterium ammoniagenes ATCC 6872 assessed as inhibition of bacterial growth incubated for 48 hrs by broth macrodilution method; format: functional
# [18] = system: Corynebacterium ammoniagenes; assay: Bactericidal activity against Brevibacterium ammoniagenes ATCC 6872 assessed as inhibition of bacterial growth incubated for 48 hrs by broth macrodilution method; format: functional
# Bacillus subtilis [19] = assay: Antibacterial activity against Bacillus subtilis ATCC 9372 assessed as inhibition of bacterial growth incubated for 48 hrs by broth macrodilution method; format: functional
# Bacillus subtilis [20] = assay: Bactericidal activity against Bacillus subtilis ATCC 9372 assessed as inhibition of bacterial growth incubated for 48 hrs by broth macrodilution method; format: functional
# Micrococcus luteus [21] = assay: Bactericidal activity against Micrococcus luteus ATCC 4698 assessed as inhibition of bacterial growth incubated for 48 hrs by broth macrodilution method; format: functional
# Staphylococcus aureus [22] = assay: Bactericidal activity against Staphylococcus aureus ATCC 12598 assessed as inhibition of bacterial growth incubated for 48 hrs by broth macrodilution method; format: functional
# Staphylococcus aureus [23] = assay: Antibacterial activity against Staphylococcus aureus ATCC 12598 assessed as inhibition of bacterial growth incubated for 48 hrs by broth macrodilution method; format: functional
# Micrococcus luteus [24] = assay: Antibacterial activity against Micrococcus luteus ATCC 4698 assessed as inhibition of bacterial growth incubated for 48 hrs by broth macrodilution method; format: functional
structure (smiles),measurement,setting,value
CCCCCCCCCC[N+](C)(C)CCO,MIC,Bacillus subtilis [1],1200 µM
same,MBC,Bacillus subtilis [2],1200 µM
COc1cc([C@@H]2c3cc4c(cc3[C@H](O)[C@H]3COC(=O)[C@H]23)OCO4)cc(OC)c1OC [PODOFILOX],IC50,MCF7 [3],65 µM
O=C(N/N=C/c1c[nH]c2ccc(Cl)cc12)c1cc(O)c(O)c(O)c1,IC50,[4],189 µM
same,IC50,MCF7 [5],6.7 µM
same,IC50,HCT-116 [6],19.2 µM
C/C(=N/NC(=O)c1cc(O)c(O)c(O)c1)c1cc(Br)ccc1O,IC50,[7],1.14 µg/mL
COc1cc2c(cc1Cc1cccc(Cl)c1F)c(=O)c(C(=O)O)cn2[C@H](CO)C(C)C [ELVITEGRAVIR],IC50,[8],> 100 µM
N#Cc1c(NC(=O)c2cc(O)c(O)c(O)c2)sc2c1CCC2,IC50,HeLa,59.4 µg/mL
C/C(=N/NC(=O)c1cc(O)c(O)c(O)c1)c1ccccn1,IC50,[7],1.14 µg/mL
N#Cc1c(NC(=O)c2cc(O)c(O)c(O)c2)sc2c1CCCCC2,IC50,HCT-116 [9],3.2 µg/mL
O=C1O[C@H]([C@@H](O)CO)C(O)=C1O [ASCORBIC ACID],IC50,[10],18 µM
same,IC50,[4],981 µM
same,IC50,[11],30.1 µM
same,IC50,[7],2.26 µg/mL
CSc1nnc(C(=O)c2cc(O)c(O)c(O)c2)o1,IC50,[10],14.6 µM
same,IC50,[11],24.4 µM
O=C(OC[C@H]1O[C@@H](Oc2c(-c3ccc(O)c(O)c3)oc3cc(O)cc(O)c3c2=O)[C@H](O)[C@@H](O)[C@@H]1O)c1cc(O)c(O)c(O)c1,IC50,Rattus norvegicus,6.64 µM
COc1cc(/C=C/C(=O)CC(=O)/C=C/c2ccc(O)c(OC)c2)ccc1O [CURCUMIN],IC50,MCF7 [5],13.7 µM
same,IC50,HCT-116 [6],34.7 µM
COC1=CC(=O)C[C@@H](C)[C@]12Oc1c(Cl)c(OC)cc(OC)c1C2=O [GRISEOFULVIN],inhibition zone (IZ),Escherichia coli,22 mm
COc1ccc(C2CC(c3ccc(OC)c(OC)c3)=NN2C(=O)c2cc(O)c(O)c(O)c2)cc1 (stereo unspecified),IC50,HCT-116 [12],18.6 µg/mL
same,IC50,HepG2,8.4 µg/mL
Oc1cc(-c2nnc(CC(O)(Cc3nnc(-c4cc(O)c(O)c(O)c4)o3)c3nnco3)o2)cc(O)c1O,IC50,[10],16 µM
same,IC50,[11],125 µM
COc1cc(C(=O)N/N=C/c2ccc(-c3ccccn3)cc2)cc(OC)c1OC,inhibition zone (IZ),Escherichia coli,17 mm
same,inhibition zone (IZ),Pseudomonas aeruginosa,17 mm
COc1cc(C(=O)N/N=C/c2cc3ccccc3[nH]2)cc(OC)c1OC,inhibition zone (IZ),Escherichia coli,17 mm
same,inhibition zone (IZ),Pseudomonas aeruginosa,17 mm
O=C(O[C@@H]1C[C@@H](O)[C@@H](O)[C@H](OC(=O)c2cc(O)c(O)c(O)c2)C1)c1cc(O)c(O)c(O)c1,IC50,[13],0.33 µM
COc1ccc(O)c(/C(C)=N\NC(=O)c2cc(O)c(O)c(O)c2)c1,IC50,[7],1.14 µg/mL
O=C(OC[C@]1(O)C[C@@H](O)[C@@H](O)[C@H](OC(=O)c2cc(O)c(O)c(O)c2)C1)c1cc(O)c(O)c(O)c1,IC50,[13],2.79 µM
COc1cc(C(=O)N/N=C/c2ccnc3ccccc23)cc(OC)c1OC,inhibition zone (IZ),Escherichia coli,17 mm
same,inhibition zone (IZ),Pseudomonas aeruginosa,17 mm
COc1cc(/C=C\c2cc3c(cc2OC(C)=O)CC[C@@H]2[C@@H]3CC[C@]3(C)[C@@H](OC(C)=O)CC[C@@H]23)cc(OC)c1OC,IC50,MCF7 [3],7.5 µM
Oc1cc(-c2nnc(Cc3nnc(-c4cc(O)c(O)c(O)c4)o3)o2)cc(O)c1O,IC50,[10],14.8 µM
same,IC50,[11],24.7 µM
Cc1nnc(C(=O)NC(C)(C)c2nc(C(=O)NCc3ccc(F)cc3)c(O)c(=O)n2C)o1 [RALTEGRAVIR],IC50,[8],35.2 µM
Cc1c(C)c2c(c(C)c1O)CCC(C)(C(=O)O)O2 (stereo unspecified) [TROLOX],IC50,[10],30.6 µM
O=C(O)c1cc(OCCNC(=O)c2cc(OCCNC(=O)c3cc(OCNC(=O)c4cc(O)c(O)c(O)c4)cc(OCNC(=O)c4cc(O)c(O)c(O)c4)c3)cc(OCCNC(=O)c3cc(OCNC(=O)c4cc(O)c(O)c(O)c4)cc(OCNC(=O)c4cc(O)c(O)c(O)c4)c3)c2)cc(OCCNC(=O)c2ccc(OCCNC(=O)c3cc(OCNC(=O)c4cc(O)c(O)c(O)c4)cc(OCNC(=O)c4cc(O)c(O)c(O)c4)c3)c(OCCNC(=O)c3cc(OCNC(=O)c4cc(O)c(O)c(O)c4)cc(OCNC(=O)c4cc(O)c(O)c(O)c4)c3)c2)c1,ED50,[10],4.7 µM
O=C(N/N=C/c1c[nH]c2ccc(Br)cc12)c1cc(O)c(O)c(O)c1,IC50,[4],172 µM
same,IC50,MCF7 [5],6.7 µM
same,IC50,HCT-116 [6],13.3 µM
COc1cc(C(=O)NN=Cc2nc(-c3ccccc3)c[nH]2)cc(OC)c1OC,inhibition zone (IZ),Escherichia coli,17 mm
same,inhibition zone (IZ),Pseudomonas aeruginosa,17 mm
CCCCCCCCCC[N+]1(C)CCCCC1,MIC,Bacillus subtilis [1],1000 µM
same,MBC,Bacillus subtilis [2],1000 µM
CCCCCCCCCCCC[N+](C)(C)CC(=O)O,MIC,Bacillus subtilis [1],1100 µM
same,IC50,[4],4690 µM
same,MBC,Bacillus subtilis [2],1100 µM
COc1ccc(/C=C\c2cc(OC)c(OC)c(OC)c2)cc1O [COMBRETASTATIN A4],IC50,MCF7 [3],0.01 µM
O=c1c(O[C@@H]2O[C@H](CO)[C@@H](O)[C@H](O)[C@H]2O)c(-c2ccc(O)c(O)c2)oc2cc(O)cc(O)c12 [ISOQUERCETIN],IC50,Rattus norvegicus,972 µM
COC(=O)c1cc(O)c(O)c(O)c1 [GALLIC ACID METHYL ESTER],IC50,[14],7.2 µM
same,IC50,Human alphaherpesvirus 2,0.224 µM
same,IC50,Plasmodium falciparum,30 µM
same,IC50,[15],8.41 µM
NNC(=O)c1ccncc1 [ISONIAZID],MIC,[16],0.56 µg/mL
COc1cc(C(=O)N/N=C/c2c(CO)cnc(C)c2O)cc(OC)c1OC,inhibition zone (IZ),Escherichia coli,17 mm
same,inhibition zone (IZ),Pseudomonas aeruginosa,17 mm
Cc1c(C)c2c(c(C)c1O)CC[C@@](C)(CCC[C@H](C)CCC[C@H](C)CCCC(C)C)O2 [ALPHA-TOCOPHEROL],IC50,[4],911 µM
O=C(O[C@@H]1C[C@H](O)C[C@@H](O)[C@H]1O)c1cc(O)c(O)c(O)c1,IC50,[13],0.71 µM
COc1ccc(C2=NN(C(=O)c3cc(O)c(O)c(O)c3)C(c3ccc(C#N)cc3)C2)cc1OC (stereo unspecified),IC50,HCT-116 [12],31.5 µg/mL
same,IC50,HepG2,15.2 µg/mL
CC1(C)S[C@@H]2[C@H](NC(=O)[C@H](N)c3ccccc3)C(=O)N2[C@H]1C(=O)O [AMPICILLIN],inhibition zone (IZ),Escherichia coli,15 mm
same,inhibition zone (IZ),Pseudomonas aeruginosa,15 mm
C/C(=N/NC(=O)c1cc(O)c(O)c(O)c1)c1cc(Cl)ccc1O,IC50,[7],1.14 µg/mL
O=C(NN1C(=O)CSC1c1ccccc1Cl)c1cc(O)c(O)c(O)c1 (stereo unspecified),MIC,[16],0.79 µg/mL
CC(=O)O[C@H]1C(=O)[C@@]2(C)[C@H]([C@H](OC(=O)c3ccccc3)[C@]3(O)C[C@H](OC(=O)[C@H](O)[C@@H](NC(=O)c4ccccc4)c4ccccc4)C(C)=C1C3(C)C)[C@]1(OC(C)=O)CO[C@@H]1C[C@@H]2O [PACLITAXEL],IC50,HCT-116 [12],0.915 µg/mL
same,IC50,MCF7 [3],0.0025 µM
same,IC50,HepG2,0.66 µg/mL
O=C(O)c1cc(O)c(O)c(O)c1 [GALLIC ACID],IC50,HeLa,26.3 µg/mL
same,IC50,HCT-116 [9],41.8 µg/mL
CCCCCCCCCCCC[N+](C)(C)CCOCCO,MIC,Bacillus subtilis [1],2400 µM
same,IC50,[4],4820 µM
same,MBC,Bacillus subtilis [2],2400 µM
CC/C(=C(\c1ccccc1)c1ccc(OCCN(C)C)cc1)c1ccccc1 [TAMOXIFEN],IC50,MCF7 [3],9 µM
O=C(/C=C/c1ccc(O)c(O)c1)O[C@@H]1C[C@](O)(C(=O)O)C[C@@H](OC(=O)/C=C/c2ccc(O)c(O)c2)[C@H]1O,IC50,[8],5.53 µM
COc1cccc(OC)c1C(=O)N[C@@H]1C(=O)N2[C@@H]1SC(C)(C)[C@@H]2C(=O)O [METHICILLIN],MIC,[17],25 µg/mL
same,MBC,[18],25 µg/mL
same,MIC,Bacillus subtilis [19],1.56 µg/mL
same,MBC,Bacillus subtilis [20],6.25 µg/mL
same,MBC,Micrococcus luteus [21],6.25 µg/mL
same,MBC,Staphylococcus aureus [22],> 6.25 µg/mL
same,MIC,Staphylococcus aureus [23],1.56 µg/mL
same,MIC,Micrococcus luteus [24],6.25 µg/mL
CCCCCCOC(=O)c1cc(O)c(O)c(O)c1 [HEXYL GALLATE],IC50,Plasmodium falciparum,110 µM
